Measured values reported in ChEMBL document CHEMBL1201862, “PubChem BioAssay data set” (2004).
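Interpolation was linear, between the two tested concentrations surrounding the appropriate level; five concentrations were tested over 48 hours in 96-well plates. GI50 marks 50% less growth.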 Activity calls are given as the source filed them. No stated cut-off is given here; in the data, active = GI50 up to about 1.1 µM and inactive = higher. Where a SMILES comes first, the peptide text is derived from it. The star is where a group is joined. Boc = CC(C)(C)OC(=O)*

Columns and labels:
Test in all cases: inhibition of tumour cell growth, NCI panel, 48 h
Hs-578T = tested on: Hs-578T
MDA-N = tested on: MDA-N
T47D = tested on: T47D
DMS-273 = tested on: DMS-273
HOP-18 = tested on: HOP-18
KM-20L2 = tested on: KM-20L2
M19-MEL = tested on: M19-MEL
SNB-78 = tested on: SNB-78

Row | SMILES | GI50 (Hs-578T) | GI50 (MDA-N) | GI50 (T47D) | GI50 (DMS-273) | GI50 (HOP-18) | GI50 (KM-20L2) | GI50 (M19-MEL) | GI50 (SNB-78)
1 | COc1c(-c2nc3ccc(N4CCN(C)CC4)cc3[nH]2)cc(OC)c2[nH]c(CO)nc12 | > 100 µM (inactive) | 89.7 µM (inactive) | > 100 µM (inactive) |  |  |  |  | 
2 | CC12CC3(O)OC(O1)C1(COC(=O)c4ccccc4)C3CC21OC1OC(CO)C(O)C(O)C1O (stereo not given) | > 100 µM (inactive) | > 100 µM (inactive) | > 100 µM (inactive) |  |  |  |  | 
3 | COC(=O)C(Cc1c[nH]c2ccccc12)NC(=O)C(Cc1c[nH]c2ccccc12)NC(=O)C(Cc1c[nH]c2ccccc12)NC(=O)C(Cc1c[nH]c2ccccc12)NC(=O)C(Cc1c[nH]c2ccccc12)NC(=O)C(Cc1c[nH]c2ccccc12)NC(=O)C(Cc1c[nH]c2ccccc12)NC(=O)C(Cc1c[nH]c2ccccc12)NC(=O)OC(C)(C)C (stereo not given) (Boc-WWWWWWWW-OMe; configuration not given here) |  | 39.1 µM (inactive) |  |  |  |  |  | 
4 | C[N+](C)(C)[BH-](Br)C(O)O (stereo not given) | > 100 µM (inactive) | > 100 µM (inactive) | > 100 µM (inactive) |  |  |  |  | 
5 | CN(Cc1ccccc1)Cn1ccnc1 | > 100 µM (inactive) | 76 µM (inactive) | > 60.7 µM (inactive) |  |  |  |  | 
6 | O=C1C(NCCF)=C(Cl)C(=O)c2ncccc21 | 1.77 µM (inactive) |  | 2.05 µM (inactive) |  |  |  |  | 
7 | CCOC(=O)c1nc2ccccc2nc1Oc1cc(OC)cc(OC)c1 | 27.9 µM (inactive) | > 100 µM (inactive) | > 100 µM (inactive) |  |  |  |  | 
8 | COc1cc(S(=O)(=O)Nc2nc(-c3ccc(/N=C/c4cccs4)cc3)cs2)ccc1Cl | > 100 µM (inactive) | > 100 µM (inactive) | 84.3 µM (inactive) |  |  |  |  | 
9 | COc1ccc(Nc2nc3cc(C(F)(F)F)ccc3nc2C(=O)O)cc1 | 21.1 µM (inactive) | 31 µM (inactive) |  |  |  |  |  | 
10 | O=S(=O)(NC(c1ccccc1)(c1cc2ccccc2[nH]1)c1cc2ccccc2n1S(=O)(=O)c1ccccc1)c1ccccc1 (stereo not given) | > 100 µM (inactive) |  | > 100 µM (inactive) |  |  |  |  | 
11 | O=C1CCC(=O)c2sccc2N1 |  |  |  | > 100 µM (inactive) | > 100 µM (inactive) | > 100 µM (inactive) | > 100 µM (inactive) | > 100 µM (inactive)
12 | c1ccc2c(OCC3CO3)ccc(OCC3CO3)c2c1 (stereo not given) | 5.32 µM (inactive) | 2.8 µM (inactive) | 1.91 µM (inactive) |  |  |  |  | 
13 | Cc1ccc2c3ccc4c(c3n(C)c2c1)C(=O)C=CC4=O | > 10 µM (inactive) | 4.94 µM (inactive) | 2.43 µM (inactive) |  |  |  |  | 
14 | CCOC(=O)c1c(NC(=O)c2ccccc2)c(C#N)c2n1CCCCC2 | > 100 µM (inactive) | > 100 µM (inactive) | > 100 µM (inactive) |  |  |  |  | 
15 | CC1CC(c2cccc3c2OCO3)=Nc2ccccc2S1 (stereo not given) |  |  |  | > 100 µM (inactive) |  | > 100 µM (inactive) | > 100 µM (inactive) | > 100 µM (inactive)
16 | Cc1cnc2[nH]c(-c3cccc(Cl)c3)cc(=O)c2c1 | 0.0266 µM (active) |  |  |  |  |  |  | 

Row | SMILES | GI50 (Hs-578T) | GI50 (MDA-N) | GI50 (T47D) | GI50 (DMS-273) | GI50 (HOP-18) | GI50 (KM-20L2) | GI50 (M19-MEL) | GI50 (SNB-78)
17 | O=C(O)CNC(=O)CO/N=C1/C(=C2/C(=O)Nc3ccccc32)Nc2ccccc21 | > 100 µM (inactive) | 84.9 µM (inactive) | 56.9 µM (inactive) |  |  |  |  | 
18 | CCCSC1=N/C(=C\c2ccco2)C(=O)N1 | > 100 µM (inactive) | > 100 µM (inactive) | 46.2 µM (inactive) |  |  |  |  | 
19 | OCC1OC(n2cnc3c(SCc4ccccc4)ncnc32)C(O)C1O (stereo not given) |  | > 100 µM (inactive) | 40.5 µM (inactive) |  |  |  |  | 
20 | NS(=O)(=O)c1ccc(NC(=O)c2cc([N+](=O)[O-])cc([N+](=O)[O-])c2)cc1 | 76.4 µM (inactive) | 21.8 µM (inactive) | 18.8 µM (inactive) |  |  |  |  | 
21 | O=C1c2ccccc2C(=O)N1CCc1nc(-c2ccccc2)c[nH]1 | > 100 µM (inactive) | > 100 µM (inactive) |  |  |  |  |  | 
22 | CC(=O)N(C)CCc1c[nH]c2ccccc12 | > 100 µM (inactive) | > 100 µM (inactive) | > 100 µM (inactive) |  |  |  |  | 
23 | C=CCOCn1ccc(N)nc1=O | > 100 µM (inactive) | > 100 µM (inactive) | > 100 µM (inactive) |  |  |  |  | 
24 | O=C(CC(CC(=O)Oc1c(Br)cc(Br)cc1C(=O)O)C(=O)Oc1c(Br)cc(Br)cc1C(=O)O)Oc1c(Br)cc(Br)cc1C(=O)O |  |  |  | > 100 µM (inactive) |  | 56.6 µM (inactive) | > 100 µM (inactive) | 49.2 µM (inactive)
25 | Cc1ccc(-c2nc(Cc3n[nH]c(-c4ccc(C)cc4)n3)n[nH]2)cc1 |  | > 100 µM (inactive) |  |  |  |  |  | 
26 | CC(=O)Nc1cc2c(s1)CCC1CC(=O)NN=C21 (stereo not given) |  |  |  | > 100 µM (inactive) |  | > 100 µM (inactive) | > 100 µM (inactive) | > 100 µM (inactive)
27 | CN(C)c1ccc(-c2nc(N)nc3c2CCCC3)cc1 |  |  |  | 50.2 µM (inactive) |  | 57.8 µM (inactive) | 45 µM (inactive) | 64.7 µM (inactive)
28 | CC(C)[C@@H](COC(C)(C)C)/N=C/N1CCc2c([nH]c3ccccc23)C1 |  |  |  | > 100 µM (inactive) |  | > 100 µM (inactive) |  | > 100 µM (inactive)
29 | Cc1ccc(/N=N/c2c(O)ccc3cc(S(=O)(=O)O)cc(S(=O)(=O)O)c23)cc1 | > 100 µM (inactive) | > 100 µM (inactive) | > 100 µM (inactive) |  |  |  |  | 
30 | c1ccc(C2(c3cc4ccccc4[nH]3)OCCO2)cc1 |  | 49.1 µM (inactive) | 59.8 µM (inactive) |  |  |  |  | 
31 | COc1cc(C2c3cc4c(cc3CC3COC(=O)N32)OCO4)cc(OC)c1OC (stereo not given) | 2.52 µM (inactive) | 0.434 µM (active) | > 100 µM (inactive) |  |  |  |  | 
32 | NC(=O)NN=C1Cc2ccccc2C1 | > 100 µM (inactive) | > 100 µM (inactive) | > 100 µM (inactive) |  |  |  |  | 
